Test results reported in US9469650B2, “Melampomagnolide B derivatives” (BOARD OF TRUSTEES OF THE UNIVERSITY OF ARKANSAS, priority 2013, dated 2016).

Columns and labels:
K-562 = assay: panel of 60 human tumor cell lines, growth inhibition (Leukemia); details: K-562
LOX IMVI = assay: panel of 60 human tumor cell lines, growth inhibition (Melanoma)
SK-MEL-2 = assay: as above; details: SK-MEL-2
SK-MEL-28 = assay: as above; details: SK-MEL-28
SK-MEL-5 = assay: as above; details: 8K-MEL-5
UACC-257 = assay: as above; details: UACC-257
SF-295 = assay: panel of 60 human tumor cell lines, growth inhibition (CNS Cancer); details: SF-295
U251 = assay: as above; details: U251
RXF 393 = assay: panel of 60 human tumor cell lines, growth inhibition (Renal Cancer); details: RXF 393
BT-549 = assay: panel of 60 human tumor cell lines, growth inhibition (Breast Cancer)
OVCAR-3 = assay: panel of 60 human tumor cell lines, growth inhibition (Ovarian Cancer); details: OVCAR-3
OVCAR-5 = assay: as above; details: OVCAR-5
OVCAR-8 = assay: as above; details: OVCAR-8
SK-OV-3 = assay: as above; details: SK-OV-3
DU-145 = assay: panel of 60 human tumor cell lines, growth inhibition (Prostate Cancer); details: DU-145
A549/ATCC = assay: panel of 60 human tumor cell lines, growth inhibition (Non-Small Cell Lung Cancer); details: A549/ATCC
HOP-62 = assay: as above; details: HOP-62
NCI-H322M = assay: as above

Compound: C=C1C(=O)O[C@H]2[C@H]1CC/C(COC(=O)NCCN1CCCCC1)=C\CC[C@@]1(C)O[C@@H]21 [JVM 2-13]
- GI50 (K-562): 2.79 µM
- TGI (K-562): 9.11 µM
- Percent Growth (K-562; Log10 Concentration −4.0): −42%
- Percent Growth (K-562; Log10 Concentration −5.0): −4%
- Percent Growth (K-562; Log10 Concentration −6.0): 93%
- Percent Growth (K-562; Log10 Concentration −7.0): 95%
- Percent Growth (K-562; Log10 Concentration −8.0): 100%
- GI50 (LOX IMVI): 10.2 µM
- TGI (LOX IMVI): 23.9 µM
- Percent Growth (LOX IMVI; Log10 Concentration −4.0): −84%
- Percent Growth (LOX IMVI; Log10 Concentration −5.0): 51%
- Percent Growth (LOX IMVI; Log10 Concentration −6.0): 94%
- Percent Growth (LOX IMVI; Log10 Concentration −7.0): 99%
- Percent Growth (LOX IMVI; Log10 Concentration −8.0): 102%
- GI50 (SK-MEL-2): 17 µM
- TGI (SK-MEL-2): 34.4 µM
- Percent Growth (SK-MEL-2; Log10 Concentration −4.0): −76%
- Percent Growth (SK-MEL-2; Log10 Concentration −5.0): 88%
- Percent Growth (SK-MEL-2; Log10 Concentration −6.0): 113%
- Percent Growth (SK-MEL-2; Log10 Concentration −7.0): 113%
- Percent Growth (SK-MEL-2; Log10 Concentration −8.0): 103%
- GI50 (SK-MEL-28): 3.35 µM
- TGI (SK-MEL-28): 14 µM
- Percent Growth (SK-MEL-28; Log10 Concentration −4.0): −81%
- Percent Growth (SK-MEL-28; Log10 Concentration −5.0): 14%
- Percent Growth (SK-MEL-28; Log10 Concentration −6.0): 90%
- Percent Growth (SK-MEL-28; Log10 Concentration −7.0): 100%
- Percent Growth (SK-MEL-28; Log10 Concentration −8.0): 98%
- GI50 (SK-MEL-5): 15.8 µM
- TGI (SK-MEL-5): 30.4 µM
- Percent Growth (SK-MEL-5; Log10 Concentration −4.0): −91%
- Percent Growth (SK-MEL-5; Log10 Concentration −5.0): 85%
- Percent Growth (SK-MEL-5; Log10 Concentration −6.0): 99%
- Percent Growth (SK-MEL-5; Log10 Concentration −7.0): 101%
- Percent Growth (SK-MEL-5; Log10 Concentration −8.0): 100%
- GI50 (UACC-257): 4.99 µM
- TGI (UACC-257): 19.2 µM
- Percent Growth (UACC-257; Log10 Concentration −4.0): −86%
- Percent Growth (UACC-257; Log10 Concentration −5.0): 34%
- Percent Growth (UACC-257; Log10 Concentration −6.0): 86%
- Percent Growth (UACC-257; Log10 Concentration −7.0): 92%
- Percent Growth (UACC-257; Log10 Concentration −8.0): 94%
- GI50 (SF-295): 50.8 µM
- TGI (SF-295): >100 µM
- Percent Growth (SF-295; Log10 Concentration −4.0): 32%
- Percent Growth (SF-295; Log10 Concentration −5.0): 94%
- Percent Growth (SF-295; Log10 Concentration −6.0): 96%
- Percent Growth (SF-295; Log10 Concentration −7.0): 95%
- Percent Growth (SF-295; Log10 Concentration −8.0): 90%
- GI50 (U251): 17.5 µM
- TGI (U251): 13.5 µM
- Percent Growth (U251; Log10 Concentration −4.0): −84%
- Percent Growth (U251; Log10 Concentration −5.0): 93%
- Percent Growth (U251; Log10 Concentration −6.0): 94%
- Percent Growth (U251; Log10 Concentration −7.0): 97%
- Percent Growth (U251; Log10 Concentration −8.0): 98%
- GI50 (RXF 393): 2.11 µM
- TGI (RXF 393): 8.93 µM
- Percent Growth (RXF 393; Log10 Concentration −4.0): −84%
- Percent Growth (RXF 393; Log10 Concentration −5.0): −4%
- Percent Growth (RXF 393; Log10 Concentration −6.0): 76%
- Percent Growth (RXF 393; Log10 Concentration −7.0): 86%
- Percent Growth (RXF 393; Log10 Concentration −8.0): 98%
- TGI (BT-549): 18.3 µM
- Percent Growth (BT-549; 81-549, Log10 Concentration −4.0): −96%
- Percent Growth (BT-549; 81-549, Log10 Concentration −5.0): 34%
- Percent Growth (BT-549; 81-549, Log10 Concentration −6.0): 89%
- Percent Growth (BT-549; 81-549, Log10 Concentration −7.0): 88%
- Percent Growth (BT-549; 81-549, Log10 Concentration −8.0): 83%
- GI50 (OVCAR-3): 2.42 µM
- TGI (OVCAR-3): 8.46 µM
- Percent Growth (OVCAR-3; Log10 Concentration −4.0): −97%
- Percent Growth (OVCAR-3; Log10 Concentration −5.0): −7%
- Percent Growth (OVCAR-3; Log10 Concentration −6.0): 85%
- Percent Growth (OVCAR-3; Log10 Concentration −7.0): 105%
- Percent Growth (OVCAR-3; Log10 Concentration −8.0): 108%
- CC50 (OVCAR-3; read-out: LC50): 30.4 µM
- GI50 (OVCAR-5): 10.6 µM
- TGI (OVCAR-5): 24.2 µM
- Percent Growth (OVCAR-5; Log10 Concentration −4.0): −86%
- Percent Growth (OVCAR-5; Log10 Concentration −5.0): 53%
- Percent Growth (OVCAR-5; Log10 Concentration −6.0): 82%
- Percent Growth (OVCAR-5; Log10 Concentration −7.0): 87%
- Percent Growth (OVCAR-5; Log10 Concentration −8.0): 84%
- GI50 (OVCAR-8): 5.07 µM
- TGI (OVCAR-8): 20 µM
- Percent Growth (OVCAR-8; Log10 Concentration −4.0): −75%
- Percent Growth (OVCAR-8; Log10 Concentration −5.0): 32%
- Percent Growth (OVCAR-8; Log10 Concentration −6.0): 93%
- Percent Growth (OVCAR-8; Log10 Concentration −7.0): 97%
- Percent Growth (OVCAR-8; Log10 Concentration −8.0): 100%
- GI50 (SK-OV-3): 21 µM
- TGI (SK-OV-3): 45.8 µM
- Percent Growth (SK-OV-3; Log10 Concentration −4.0): −50%
- Percent Growth (SK-OV-3; Log10 Concentration −5.0): 97%
- Percent Growth (SK-OV-3; Log10 Concentration −6.0): 97%
- Percent Growth (SK-OV-3; Log10 Concentration −7.0): 103%
- Percent Growth (SK-OV-3; Log10 Concentration −8.0): 92%
- GI50 (DU-145): 4.89 µM
- TGI (DU-145): 16.6 µM
- Percent Growth (DU-145; Log10 Concentration −4.0): −97%
- Percent Growth (DU-145; Log10 Concentration −5.0): 27%
- Percent Growth (DU-145; Log10 Concentration −6.0): 101%
- Percent Growth (DU-145; Log10 Concentration −7.0): 108%
- Percent Growth (DU-145; Log10 Concentration −8.0): 110%
- GI50 (A549/ATCC): 18.1 µM
- TGI (A549/ATCC): 42.2 µM
- Percent Growth (A549/ATCC; Log10 Concentration −4.0): −51%
- Percent Growth (A549/ATCC; Log10 Concentration −5.0): 85%
- Percent Growth (A549/ATCC; Log10 Concentration −6.0): 94%
- Percent Growth (A549/ATCC; Log10 Concentration −7.0): 98%
- Percent Growth (A549/ATCC; Log10 Concentration −8.0): 95%
- GI50 (HOP-62): 17 µM
- Percent Growth (HOP-62; Log10 Concentration −4.0): −77%
- Percent Growth (HOP-62; Log10 Concentration −5.0): 88%
- Percent Growth (HOP-62; Log10 Concentration −6.0): 91%
- Percent Growth (HOP-62; Log10 Concentration −7.0): 95%
- Percent Growth (HOP-62; Log10 Concentration −8.0): 86%
- GI50 (NCI-H322M): 17.4 µM
- Percent Growth (NCI-H322M; Log10 Concentration −4.0): −89%
- Percent Growth (NCI-H322M; Log10 Concentration −5.0): 94%
- Percent Growth (NCI-H322M; Log10 Concentration −6.0): 106%
- Percent Growth (NCI-H322M; Log10 Concentration −7.0): 112%
- Percent Growth (NCI-H322M; Log10 Concentration −8.0): 105%
